From the Deep4Chem optical property database

Experiment: solvent given as SMILES

Which results are given for `Cc1ccc(-n2c3ccccc3c3cc(C(=C(C#N)C#N)c4ccccc4)ccc32)cc1`?
absorption maximum (in C1CCOC1): 442 nm; absorption maximum (in CC#N): 445 nm; absorption maximum (in CC(C)=O): 442 nm; absorption maximum (in CCOC(C)=O): 442 nm; absorption maximum (in CO): 447 nm; absorption maximum (in CS(C)=O): 453 nm; absorption maximum (in Cc1ccccc1): 447 nm; absorption maximum (in ClC(Cl)Cl): 458 nm

With `COC1=[N+]2C(=C(c3ccccc3)c3cc(SC#N)c(OC)n3[B-]2(F)F)C=C1SC#N` as the compound, how does the absorption maximum (in CC#N) read?
The absorption maximum was 513 nm.

And the absorption maximum (in CCCCCC)?
The absorption maximum was 518 nm.

What about the absorption maximum (in CCOC(C)=O) of the same compound?
Its absorption maximum is 515 nm.

And the absorption maximum (in CO)?
Its absorption maximum is 512 nm.

What about the absorption maximum (in ClCCl) of the same compound?
The absorption maximum was 518 nm.

Which results are given for `Cc1ccc(/C=N/c2cc(C(C)C)c(O)cc2C)cc1`?
absorption maximum (in C1CCCCC1): 341 nm; absorption maximum (in C1CCOC1): 348 nm; absorption maximum (in C1COCCO1): 344 nm; absorption maximum (in CC#N): 337 nm; absorption maximum (in CC(C)(C)O): 346 nm; absorption maximum (in CC(C)O): 345 nm; absorption maximum (in CCCCCC): 340 nm; absorption maximum (in CCCCO): 345 nm; absorption maximum (in CCO): 344 nm; absorption maximum (in CCOC(C)=O): 344 nm; absorption maximum (in CN(C)C=O): 347 nm; absorption maximum (in CO): 344 nm; absorption maximum (in CS(C)=O): 348 nm; absorption maximum (in ClC(Cl)Cl): 346 nm; absorption maximum (in ClCCl): 341 nm; absorption maximum (in O): 346 nm; absorption maximum (in OCCO): 344 nm

For `CC1(C)CC(/C=C/c2ccc(-n3ccnc3)cc2)=CC(=C(C#N)C#N)C1`, which absorption maximum (in C1CCOC1) is on record?
Its absorption maximum is 398 nm.

And the absorption maximum (in CC#N)?
The absorption maximum was 390 nm.

And the absorption maximum (in CCO)?
The absorption maximum was 391 nm.

What about the absorption maximum (in CCOC(C)=O) of the same compound?
Its absorption maximum is 390 nm.

What about the absorption maximum (in ClCCl) of the same compound?
Its absorption maximum is 393 nm.

What about the absorption maximum (in c1ccccc1) of the same compound?
Its absorption maximum is 397 nm.

Which results are given for `COc1ccc2c(c1)C(=O)c1cc(OC)cc(OC)c1-2`?
absorption maximum (in C1CCCCC1): 478 nm; absorption maximum (in CC#N): 491 nm; absorption maximum (in CCO): 492 nm

Which absorption maximum (in CC#N) does the source give for `COc1ccc(-n2nc(C#N)c(N3CCCC3)n2)cc1` here?
Its absorption maximum is 340 nm.

What about the absorption maximum (in CCCCCC) of the same compound?
Its absorption maximum is 335 nm.

What about the absorption maximum (in CCO) of the same compound?
Its absorption maximum is 339 nm.

And the absorption maximum (in CN(C)C=O)?
The absorption maximum was 343 nm.

And the absorption maximum (in CO)?
The absorption maximum was 340 nm.

What about the absorption maximum (in ClC(Cl)Cl) of the same compound?
Its absorption maximum is 342 nm.

With `N#Cc1ccc(-n2c(-c3ccc(-c4ccc(N(c5ccccc5)c5ccccc5)cc4)s3)nc3c4ccccc4c4ccccc4c32)c2ccccc12` as the compound, how does the absorption maximum (in ClCCl) read?
The absorption maximum was 308 nm.

With `CCOC(=O)c1c(NC(C)(C)C)oc(-c2ccc(-c3ccccc3)cc2)c1C(=O)OCC` as the compound, how does the absorption maximum (in CC#N) read?
Its absorption maximum is 355 nm.

With `C(#Cc1ccccc1)C(C#Cc1ccccc1)=Cc1cccc(C=C(C#Cc2ccccc2)C#Cc2ccccc2)c1` as the compound, how does the absorption maximum (in ClC(Cl)Cl) read?
The absorption maximum was 349 nm.

Which results are given for `Cc1cc(C)nc(N)n1`?
absorption maximum (in CCO): 297 nm; absorption maximum (in CO): 296 nm; absorption maximum (in O): 284 nm

With `CCOC(=O)c1c2c3c(ccc(Br)c3c3cc4ccccc4cc13)N(C)C2=O` as the compound, how does the absorption maximum (in CC#N) read?
The absorption maximum was 404 nm.

Which absorption maximum (in CC#N) does the source give for `N#C/C(=C\c1ccc(C#N)cc1)c1nc(-c2ccccc2)cs1` here?
The absorption maximum was 370 nm.

And the absorption maximum (in CCO)?
The absorption maximum was 375 nm.

And the absorption maximum (in CN(C)C=O)?
Its absorption maximum is 376 nm.

And the absorption maximum (in Cc1ccccc1)?
Its absorption maximum is 380 nm.

And the absorption maximum (in ClCCl)?
The absorption maximum was 375 nm.

With `COc1c2ccccc2c(-c2ccccc2)c2ccccc12` as the compound, how does the absorption maximum (in C1COCCO1) read?
The absorption maximum was 378 nm.

And the absorption maximum (in CCCCCC)?
The absorption maximum was 378 nm.

What about the absorption maximum (in CCCCCCC) of the same compound?
The absorption maximum was 376 nm.

And the absorption maximum (in CCCCO)?
Its absorption maximum is 378 nm.

What about the absorption maximum (in CCO) of the same compound?
The absorption maximum was 378 nm.

And the absorption maximum (in CN(C)C=O)?
The absorption maximum was 378 nm.

And the absorption maximum (in Cc1ccccc1)?
The absorption maximum was 378 nm.

What about the absorption maximum (in ClC(Cl)(Cl)Cl) of the same compound?
Its absorption maximum is 376 nm.

What about the absorption maximum (in ClC(Cl)Cl) of the same compound?
The absorption maximum was 378 nm.

And the absorption maximum (in ClCCl)?
Its absorption maximum is 378 nm.

And the absorption maximum (in OCC(O)CO)?
The absorption maximum was 378 nm.

What about the absorption maximum (in OCCO) of the same compound?
Its absorption maximum is 379 nm.

With `CCCC1=Cc2nc1ccc1[nH]c(cc1CCC)c1nc(ccc3[nH]c2cc3CCC)C(CCC)=C1` as the compound, how does the absorption maximum (in Cc1ccccc1) read?
The absorption maximum was 667 nm.

Which absorption maximum (in ClCCl) does the source give for `N#Cc1ccc(C2=Cc3cc4ccccc4cc3P2(=O)c2ccccc2)cc1` (centres undefined) here?
The absorption maximum was 391 nm.

For `O=Cc1ccc2ccc3cccc4ccc1c2c34`, which absorption maximum (in C1CCOC1) is on record?
The absorption maximum was 391 nm.

What about the absorption maximum (in CC#N) of the same compound?
The absorption maximum was 390 nm.

What about the absorption maximum (in CCCCCC) of the same compound?
Its absorption maximum is 387 nm.

And the absorption maximum (in CCO)?
The absorption maximum was 389 nm.

And the absorption maximum (in CN(C)C=O)?
Its absorption maximum is 390 nm.

What about the absorption maximum (in CO) of the same compound?
Its absorption maximum is 389 nm.

And the absorption maximum (in Cc1ccccc1)?
The absorption maximum was 391 nm.

And the absorption maximum (in ClCCl)?
Its absorption maximum is 392 nm.
